# Structures can show the parent of a compound that is named as a salt.
# Target: muscarinic acetylcholine receptors
# Experiment: Inhibition of specific binding of 3H-Oxotremorine-M (3H-Oxo)
# Design: species or system rat (male Wistar
# Conditions: rat cortex; 3H-Oxotremorine 1.0 nM; 20 mM Hepes pH 7.4; 30 min at 25° C.
# Experimental: The pharmacological properties of the compounds of the present invention (Formula I) can be illustrated by determining their capability to inhibit the specific binding of ^3 H-Oxotremorine-M (^3 H-Oxo).
# ^3 H-Oxo labels muscarinic receptors in the CNS (with a preference for agonist domaines of the receptors). Three different sites are labelled by 3H-Oxo. These sites have affinity of 1.0, 20 and 3000 nM, respectively. Using the present experimental conditions only the high and medium affinity sites are determined. The inhibitory effects of compounds on ^3 H-Oxo binding reflects the affinity for muscarinic acetylcholine receptors.
# All preparations are performed at 0°-4° C. unless otherwise indicated. Fresh cortex (0.1-1 g) from male Wistar rats (150-250 g) is homogenized for 5-10 s in 10 ml 20 mM Hepes pH: 7.4, with an Ultra-Turrax homogenizer. The homogenizer is rinsed with 10 ml of buffer and the combined suspension centrifuged for 15 min at 40,000×g. The pellet is washed three times with buffer. In each step the pellet is homogenized as before in 2×10 ml of buffer and centrifuged for 10 min at 40,000×g. The final pellet is homogenized in 20 mM Hepes pH: 7.4 (100 ml per g of original tissue) and used for binding assay. Aliquots of 0.5 ml is added 25 μl of test solution and 25 μl of ^3 H-Oxotremorine (1.0 nM, final concentration) mixed and incubated for 30 min at 25° C. Non-specific binding is determined in triplicate using Arecoline (1 μg/ml, final concentration) as the test substance. After incubation samples are added 5 ml of ice-cold buffer and poured directly onto Whatman GF/C glass fiber filters under suction and immediately washed 2 times with 5 ml of ice-cold buffer. The amount of radioactivity on the filters are determined by conventional liquid scintillation counting. Specific binding is total binding minus non-specific binding. Test substances are dissolved in 10 ml water (if necessary heated on a steam-bath for less than 5 minutes) at a concentration of 2.2 mg/ml. 25-75% inhibition of specific binding must be obtained before calculation of IC50.
# The test value will be given as IC50 (the concentration (ng/ml) of the test substance which inhibits the specific binding of ^3 H-Oxo by 50%). [formula] where Co is specific binding in control assays and Cx is the specific binding in the test assay. (The calculations assume normal mass-action kinetics).
row,SMILES,Inhibition in vitro OXO BINDING (IC50: concentration which inhibits the specific binding of 3H-Oxo by 50%) [ng/mL]
1,"CCCCCCOc1nsnc1C1=CCCNC1.O=C(O)C(=O)O [Compound 37, 1,2,5,6-tetrahydro-3-(4-hexyloxy-1,2,5-thiadiazol-3-yl) pyridine oxalate]",6.3
2,"COCCOCCOc1nsnc1C1=CCCN(C)C1.O=C(O)C(=O)O [Compound 38, 3-(4-(2-(2-methoxyethoxy)ethoxy)-1,2,5-thiadiazol-3-yl)-1,2,5,6-tetrahydro-1-methylpyridine oxalate]",7.4
3,"CCCCOCCOc1nsnc1C1=CCCN(C)C1.O=C(O)C(=O)O [Compound 41, 3-(4-(2-butoxyethoxy)-1,2,5-thiadiazol-3-yl)-1,2,5,6-tetrahydro-1-methylpyridine oxalate]",1.3
4,"CCCCOCCOCCOc1nsnc1C1=CCCN(C)C1.O=C(O)C(=O)O [Compound 42, 3-(4-(2-(2-butoxyethoxy)ethoxy)-1,2,5-thiadiazol-3-yl)-1,2,5,6-tetrahydro-1-methylpyridine oxalate]",7.0
5,"CCOCCOCCOc1nsnc1C1=CCCN(C)C1.O=C(O)C(=O)O [Compound 43, 3-(4-(2-(2-ethoxyethoxy)ethoxy)-1,2,5-thiadiazol-3-yl)-1,2,5,6-tetrahydro-1-methylpyridine oxalate]",4.0
6,"CN1CCC=C(c2nsnc2N2CCOCC2)C1 [Compound 45, 3-(4-morpholino-1,2,5-thiadiazol-3-yl)-1,2,5,6-tetrahydro-1-methylpyridineoxalate]",115
7,"CCCCCCNc1nsnc1C1=CCCN(C)C1 [Compound 46, 3-(4-hexylamino-1,2,5-thiadiazol-3-yl)-1,2,5,6-tetrahydro-1-methylpyridineoxalate]",18
8,"CCCSc1nsnc1C1=CCCN(C)C1 [Compound 47, 3-(4-propylthio-1,2,5-thiadiazol-3-yl)-1,2,5,6-tetrahydro-1-methylpyridineoxalate]",0.3
9,"CSc1nsnc1C1=CCCN(C)C1 [Compound 49, 3-(4-methylthio-1,2,5-thiadiazol-3-yl)-1,2,5,6-tetrahydro-1-methylpyridineoxalate]",0.7
10,"CC(=O)Nc1nonc1C1=CCCN(C)C1 [Compound 51, 3-(4-acetylamino-1,2,5-oxadiazol-3-yl)-1,2,5,6-tetrahydro-1-methylpyridineoxalate]",300
11,"CCCCCCOc1nonc1C1=CCCN(C)C1.O=C(O)C(=O)O [Compound 54, 3-(4-hexyloxy-1,2,5-oxadiazol-3-yl)-1,2,5,6-tetrahydro-1-methylpyridine oxalate]",20
12,"CCC#CCCOc1nonc1C1=CCCN(C)C1.O=C(O)C(=O)O [Compound 56, 3-(4-(3-hexynyloxy)-1,2,5-oxadiazol-3-yl)-1,2,5,6-tetrahydro-1-methylpyridine oxalate]",2.1
13,"CCCCCCCc1nsnc1C1=CCCN(C)C1 [Compound 58, 3-(4-heptyl-1,2,5-thiadiazol-3-yl)-1,2,5,6-tetrahydro-1-methylpyridinium oxalate]",50
14,"CCCCCCCCc1nsnc1C1=CCCN(C)C1 [Compound 60, 3-(4-octyl-1,2,5-thiadiazol-3-yl)-1,2,5,6-tetrahydro-1-methylpyridinium oxalate]",164
15,"CC(C)Cc1nsnc1C1=CCCN(C)C1 [Compound 61, 3-(4-isobutyl-1,2,5-thiadiazol-3-yl)-1,2,5,6-tetrahydro-1-methylpyridinium oxalate]",50
16,"CN1CCC=C(c2nsnc2CC2CC2)C1 [Compound 62, 3-(4-cyclopropylmethyl-1,2,5-thiadiazol-3-yl)-1,2,5,6-tetrahydro-1-methylpyridinium oxalate]",32
17,"CCCc1nsnc1C1=CCCN(C)C1 [Compound 63, 3-(4-propyl-1,2,5-thiadiazol-3-yl)-1,2,5,6-tetrahydro-1-methylpyridinium oxalate]",25
18,"CCCCCCCCSc1nsnc1C1=CCCN(C)C1.O=C(O)C(=O)O [Compound 64, 3-(4-octylthio-1,2,5-thiadiazol-3-yl)-1,2,5,6-tetrahydro-1-methylpyridine oxalate]",58
19,"CCCCCSc1nsnc1C1=CCCN(C)C1 [Compound 66, 3-(4-pentylthio-1,2,5-thiadiazol-3-yl)-1,2,5,6-tetrahydro-1-methylpyridineoxalate]",1.8

# Continued, values first:
row,Inhibition in vitro OXO BINDING (IC50: concentration which inhibits the specific binding of 3H-Oxo by 50%) [ng/mL],SMILES
1,1.4,"CCC/C=C\COc1nsnc1C1=CCCN(C)C1.O=C(O)C(=O)O [Compound 32, cis-3-(4-(2-hexenyloxy)-1,2,5-thiadiazol-3-yl)-1,2,5,6-tetrahydro-1-methylpyridine oxalate]"
2,0.6,"CCC/C=C/COc1nsnc1C1=CCCN(C)C1.O=C(O)C(=O)O [Compound 35, trans-3-(4-(2-hexenyloxy)-1,2,5-thiadiazol-3-yl)-1,2,5,6-tetrahydro-1-methylpyridine oxalate]"
3,0.3,"CN1CCC=C(c2cnsn2)C1.O=C(O)C(=O)O [Compound 36, 3-(1,2,5-thiadiazol-3-yl)-1,2,5,6-tetrahydro-1-methylpyridine oxalate]"
4,3.7,"CCOCCOc1nsnc1C1=CCCN(C)C1.O=C(O)C(=O)O [Compound 40, 3-(4-(2-ethoxyethoxy)-1,2,5-thiadiazol-3-yl)-1,2,5,6-tetrahydro-1-methylpyridine oxalate]"
5,14,"CC1CCN(c2nsnc2C2=CCCN(C)C2)CC1.O=C(O)C(=O)O [Compound 44, 3-(4-(4-methylpiperidino)-1,2,5-thiadiazol-3-yl)-1,2,5,6-tetrahydro-1-methylpyridine oxalate]"
6,0.6,"CCCCSc1nsnc1C1=CCCN(C)C1.O=C(O)C(=O)O [Compound 48, 3-(4-butylthio-1,2,5-thiadiazol-3-yl)-1,2,5,6-tetrahydro-1-methylpyridine oxalate]"
7,300,"CN1CCC=C(c2nonc2N)C1.O=C(O)C(=O)O [Compound 50, 3-(4-amino-1,2,5-oxadiazol-3-yl)-1,2,5,6-tetrahydro-1-methylpyridine oxalate]"
8,65,"CN1CCC=C(c2nonc2Cl)C1.O=C(O)C(=O)O [Compound 52, 3-(4-chloro-1,2,5-oxadiazol-3-yl)-1,2,5,6-tetrahydro-1-methylpyridine oxalate]"
9,1.2,"CN1CCC=C(c2cnon2)C1.O=C(O)C(=O)O [Compound 53, 3-(1,2,5-oxadiazol-3-yl)-1,2,5,6-tetrahydro-1-methylpyridine oxalate]"
10,8,"CCCCOc1nonc1C1=CCCN(C)C1.O=C(O)C(=O)O [Compound 55, 3-(4-butyloxy-1,2,5-oxadiazol-3-yl)-1,2,5,6-tetrahydro-1-methylpyridine oxalate]"
11,0.6,"CCSc1nsnc1C1=CCCN(C)C1.O=C(O)C(=O)O [Compound 65, 3-(4-ethylthio-1,2,5-thiadiazol-3-yl)-1,2,5,6-tetrahydro-1-methylpyridine oxalate]"
12,1.6,"CCCCCCSc1nsnc1C1=CCCN(C)C1.O=C(O)C(=O)O [Compound 67, 3-(4-hexylthio-1,2,5-thiadiazol-3-yl)-1,2,5,6-tetrahydro-1-methylpyridine oxalate]"

# From patent publication US5712297A, “Piperdine compounds and their preparation and use” (Novo Nordisk A/S, priority 1989, dated 1998)
